SMILES | melting point [°C]
N#Cc1ncn2c(C(F)(F)F)cc(-c3ccccc3)nc12 [Example 5.1, 2-Phenyl-4-trifluoromethyl-imidazo[1,5-a]pyrimidine-8-carbonitrile] | 202
Cc1cc(-c2cc(C(F)(F)F)n3ncc(-c4ccncc4)c3n2)ccc1Cl [Example 4.4, 5-(4-Chloro-3-methyl-phenyl)-3-pyridin-4-yl-7-trifluoromethyl-pyrazolo[1,5-a]pyrimidine] | 247
N#Cc1cnn2c(C(F)(F)F)cc(-c3ccncc3)nc12 [Example 1.22, 5-Pyridin-4-yl-7-trifluoromethyl-pyrazolo[1,5-a]pyrimidine-3-carbonitrile] | 233
N#Cc1ncn2c(C(F)(F)F)cc(-c3ccc(OCC(F)(F)F)c(C(F)(F)F)c3)nc12 [Example 5.24, 2-(4-Trifluoroethoxy-3-trifluoromethyl-phenyl)-4-trifluoromethyl-imidazo[1,5-a]pyrimidine-8-carbonitrile] | 189
N#Cc1cnn2c(C(F)(F)F)cc(-c3ccc(F)c(Cl)c3)nc12 [Example 1.14, 5-(3-Chloro-4-fluoro-phenyl)-7-trifluoromethyl-pyrazolo[1,5-a]pyrimidine-3-carbonitrile] | 190
N#Cc1ncn2c(C(F)(F)F)cc(-c3ccncc3)nc12 [Example 5.27, 2-Pyridin-4-yl-4-trifluoromethyl-imidazo[1,5-a]pyrimidine-8-carbonitrile] | 254
N#Cc1ncn2c(C(F)(F)F)cc(-c3cccc(C(F)(F)F)c3)nc12 [Example 5.11, 2-(3-Trifluoromethyl-phenyl)-4-trifluoromethyl-imidazo[1,5-a]pyrimidine-8-carbonitrile] | 202
Cc1cccc(-c2cc(C(F)(F)F)n3cnc(C#N)c3n2)c1 [Example 5.9, 2-(3-Methyl-phenyl)-4-trifluoromethyl-imidazo[1,5-a]pyrimidine-8-carbonitrile] | 202
Cc1cc(-c2cc(C(F)(F)F)n3ncc(-c4ccnc(CO)c4)c3n2)ccc1Cl [Example 6.3, {4-[5-(4-Chloro-3-methyl-phenyl)-7-trifluoromethyl-pyrazolo[1,5-a]pyrimidin-3-yl]-pyridin-2-yl}-methanol] | 220
Cc1cc(-c2cc(C(F)(F)F)n3cnc(C#N)c3n2)ccc1C(F)(F)F [Example 5.23, 2-(3-Methyl-4-trifluoromethyl-phenyl)-4-trifluoromethyl-imidazo[1,5-a]pyrimidine-8-carbonitrile] | 217
Cc1cc(-c2cc(C(F)(F)F)n3cnc(-c4ccncc4)c3n2)ccc1Cl [Example 8.10, 2-(4-Chloro-3-methyl-phenyl)-8-pyridin-4-yl-4-trifluoromethyl-imidazo[1,5-a]pyrimidine] | 254
N#Cc1cnn2c(C(F)(F)F)cc(-c3ccc(C(F)(F)F)cc3)nc12 [Example 1.7, 5-(4-Trifluoromethyl-phenyl)-7-trifluoromethyl-pyrazolo[1,5-a]pyrimidine-3-carbonitrile] | 176
Cc1cc(-c2cc(C(F)F)n3ncc(-c4ccncc4)c3n2)ccc1C(F)(F)F [Example 9.3, 7-Difluoromethyl-5-(3-methyl-4-trifluoromethyl-phenyl)-3-pyridin-4-yl-pyrazolo[1,5-a]pyrimidine] | 236
CCOc1cc(-c2cc(C(F)(F)F)n3ncc(-c4ccncc4)c3n2)ccc1C(F)(F)F [Example 4.47, 5-(3-Ethoxy-4-trifluoromethyl-phenyl)-3-pyridin-4-yl-7-trifluoromethyl-pyrazolo[1,5-a]pyrimidine] | 251
COc1ccc(-c2cc(C(F)(F)F)n3ncc(-c4ccncc4)c3n2)cc1 [Example 4.58, 5-(4-Methoxy-phenyl)-3-pyridin-4-yl-7-trifluoromethyl-pyrazolo[1,5-a]pyrimidine] | 244
N#Cc1cnn2c(C(F)(F)F)cc(-c3cccc(C(F)(F)F)c3)nc12 [Example 1.6, 5-(3-Trifluoromethyl-phenyl)-7-trifluoromethyl-pyrazolo[1,5-a]pyrimidine-3-carbonitrile] | 192
N#Cc1cnn2c(C(F)(F)F)cc(-c3ccccc3F)nc12 [Example 1.11, 5-(2-Fluoro-phenyl)-7-trifluoromethyl-pyrazolo[1,5-a]pyrimidine-3-carbonitrile] | 165
N#Cc1ncn2c(C(F)(F)F)cc(-c3ccccn3)nc12 [Example 5.25, 2-Pyridin-2-yl-4-trifluoromethyl-imidazo[1,5-a]pyrimidine-8-carbonitrile] | 205
Cc1cc(-c2cc(C(F)(F)F)n3ncc(-c4cccnc4)c3n2)ccc1C(F)(F)F [Example 4.36, 5-(3-Methyl-4-trifluoromethyl-phenyl)-3-pyridin-3-yl-7-trifluoromethyl-pyrazolo[1,5-a]pyrimidine] | 177
N#Cc1ncn2c(C(F)(F)F)cc(-c3ccccc3Cl)nc12 [Example 5.6, 2-(2-Chloro-phenyl)-4-trifluoromethyl-imidazo[1,5-a]pyrimidine-8-carbonitrile] | 180

SMILES | melting point [°C]
Cc1ccc(-c2cc(C(F)(F)F)n3cnc(C#N)c3n2)cc1 [Example 5.4, 2-(4-Methyl-phenyl)-4-trifluoromethyl-imidazo[1,5-a]pyrimidine-8-carbonitrile] | 197
CCOc1ccc(-c2cc(C(F)(F)F)n3cnc(-c4ccncc4)c3n2)cc1C(F)(F)F [Example 8.17, 2-(4-Ethoxy-3-trifluoromethyl-phenyl)-8-pyridin-4-yl-4-trifluoromethyl-imidazo[1,5-a]pyrimidine] | 244
FC(F)(F)c1ccc(-c2cc(C(F)(F)F)n3cnc(-c4ccncc4)c3n2)cc1C(F)(F)F [Example 8.34, 2-(3,4-Bis-trifluoromethyl-phenyl)-8-pyridin-4-yl-4-trifluoromethyl-imidazo[1,5-a]pyrimidine] | 211
FC(F)(F)COc1cc(-c2cc(C(F)(F)F)n3ncc(-c4ccncc4)c3n2)ccc1C(F)(F)F [Example 4.50, 3-Pyridin-4-yl-5-[3-(2,2,2-trifluoro-ethoxy)-4-trifluoromethyl-phenyl]-7-trifluoromethyl-pyrazolo[1,5-a]pyrimidine] | 251
CCOc1ccc(-c2cc(C(F)(F)F)n3ncc(-c4ccnc(C)c4)c3n2)cc1C(F)(F)F [Example 4.44, 5-(4-Ethoxy-3-trifluoromethyl-phenyl)-3-(2-methyl-pyridin-4-yl)-7-trifluoromethyl-pyrazolo[1,5-a]pyrimidine] | 250
Fc1ccc(-c2cc(C(F)(F)F)n3ncc(-c4ccncc4)c3n2)cc1Cl [Example 4.7, 5-(3-Chloro-4-fluoro-phenyl)-3-pyridin-4-yl-7-trifluoromethyl-pyrazolo[1,5-a]pyrimidine] | 265
CCOc1cc(-c2cc(C(F)(F)F)n3cnc(-c4ccncc4)c3n2)ccc1C(F)(F)F [Example 8.30, 2-(3-Ethoxy-4-trifluoromethyl-phenyl)-8-pyridin-4-yl-4-trifluoromethyl-imidazo[1,5-a]pyrimidine] | 212
N#Cc1cnn2c(C(F)(F)F)cc(-c3cccc(Cl)c3)nc12 [Example 1.1, 5-(3-Chloro-phenyl)-7-trifluoromethyl-pyrazolo[1,5-a]pyrimidine-3-carbonitrile] | 204
Fc1ccc(-c2cc(C(F)(F)F)n3cnc(-c4ccncc4)c3n2)cc1Cl [Example 8.11, 2-(3-Chloro-4-fluoro-phenyl)-8-pyridin-4-yl-4-trifluoromethyl-imidazo[1,5-a]pyrimidine] | 266
FC(F)(F)c1cc(-c2ccc(Cl)c(Cl)c2)nc2c(-c3ccccn3)cnn12 [Example 4.11, 5-(3,4-Dichloro-phenyl)-3-pyridin-2-yl-7-trifluoromethyl-pyrazolo[1,5-a]pyrimidine] | 188
N#Cc1ncn2c(C(F)(F)F)cc(-c3ccc(C(F)(F)F)cc3)nc12 [Example 5.10, 2-(4-Trifluoromethyl-phenyl)-4-trifluoromethyl-imidazo[1,5-a]pyrimidine-8-carbonitrile] | 236
Cc1cc(-c2cnn3c(C(F)(F)F)cc(-c4ccc(Cl)c(C)c4)nc23)cc(C)n1 [Example 4.20, 5-(4-Chloro-3-methyl-phenyl)-3-(2,6-dimethyl-pyridin-4-yl)-7-trifluoromethyl-pyrazolo[1,5-a]pyrimidine] | 254
N#Cc1cnn2c(C(F)(F)F)cc(-c3ccc(Cl)c(Cl)c3)nc12 [Example 1.16, 5-(3,4-Dichloro-phenyl)-7-trifluoromethyl-pyrazolo[1,5-a]pyrimidine-3-carbonitrile] | 206
Cc1cc(-c2ncn3c(C(F)(F)F)cc(-c4ccc(C(F)(F)F)c(C(F)(F)F)c4)nc23)ccn1 [Example 8.35, 2-(3,4-Bis-trifluoromethyl-phenyl)-8-(2-methyl-pyridin-4-yl)-4-trifluoromethyl-imidazo[1,5-a]pyrimidine] | 218
N#Cc1ncn2c(C(F)(F)F)cc(-c3ccc(Cl)cc3)nc12 [Example 5.2, 2-(4-Chloro-phenyl)-4-trifluoromethyl-imidazo[1,5-a]pyrimidine-8-carbonitrile] | 205
FC(F)(F)c1cccc(-c2cc(C(F)(F)F)n3cnc(-c4ccncc4)c3n2)c1 [Example 8.13, 8-Pyridin-4-yl-4-trifluoromethyl-2-(3-trifluoromethyl-phenyl)-imidazo[1,5-a]pyrimidine] | 258
FC(F)(F)c1cc(-c2ccc(Cl)cc2)nc2c(-c3ccncc3)ncn12 [Example 8.9, 2-(4-Chloro-phenyl)-8-pyridin-4-yl-4-trifluoromethyl-imidazo[1,5-a]pyrimidine] | 290
Cc1cc(-c2ncn3c(C(F)(F)F)cc(-c4cccc(C(F)(F)F)c4)nc23)ccn1 [Example 8.25, 8-(2-Methyl-pyridin-4-yl)-4-trifluoromethyl-2-(3-trifluoromethyl-phenyl)-imidazo[1,5-a]pyrimidine] | 234
Cc1cc(-c2ncn3c(C(F)(F)F)cc(-c4ccc(C(F)(F)F)c(C)c4)nc23)ccn1 [Example 8.29, 2-(3-Methyl-4-trifluoromethyl-phenyl)-8-(2-methyl-pyridin-4-yl)-4-trifluoromethyl-imidazo[1,5-a]pyrimidine] | 243

Reference: patent US7514443B2, “Substituted pyrazolo[1,5-a]pyrimidines as inhibitors of metabotropic glutamate receptors” (Hoffmann-La Roche Inc., priority 2003, dated 2009)
